Data reported in US20020102533A1, “Hepatitis C protease exosite for inhibit or design” (priority 2000, published 2002).
Where a SMILES comes first, the peptide text is derived from it. [ ]: non-standard residue; d: D form. Dip = N[C@H](C(=O)O)C(c1ccccc1)c1ccccc1; Cha = N[C@@H](CC1CCCCC1)C(=O)O

How the values were obtained:
[1] = target: T1, HCV NS3 protease, genotype 1a (Hepatitis C virus genotype 1a, UniProt P26664); test: biochemical; assay type: biochemical
T1 construct: NS3 protease catalytic domain (amino acids 1 to 192); MGAQH expression leader (5 aa), or alternatively the 15 aa His tag […]; made in house; host or cells: E. coli BL21 (DE3)
Method: (§1) Endpoint HPLC based HCV protease assay: HCV protease (5 nM) was incubated in 50 mM Tris pH 7.5, 0.1% maltoside, 5 mM DTT and appropriate amounts of glycerol, NS4A peptide, and substrate. Routine assays were 100 μl in volume containing 15% or 50% glycerol, 5.0 μM NS4A peptide and 5.0 μM substrate. Reactions were run at room temperature (˜22° C.) and quenched by the addition of 4 μl of 10% TFA before 10% of the substrate was consumed. Incubation times were 20 minutes for the ester substrate (Peptide Substrate A) and 80 minutes for the P6-P7′ amide substrate (Peptide Substrate B). […] Incubation times were 90 min. Samples, 50 μl, were injected onto an Hewlett Packard 1090 Liquid Chromatograph containing a Dynamax-60A C18 column. The column was eluted with a linear gradient from 10% acetonitrile to 45% acetonitrile in water. All solvents contained 0.1% TFA. A flow rate of 1 ml/min was used. […] The product peaks were detected by fluorescence excitation at 350 nm and emission at 500 nm.
Continuous fluorescence-based HCV protease assay: This asay was a modified version of method of Taliani (Taliani, M.; et al. Anal. Biochem. 240, 60-67, 1996) using Substrate A (Ac-D-E-D(EDANS)-E-E-Abuψ[COO]-A-S-K(DABCYL)—NH2). Assays were run in a 96-well microtiter plates using a Perkin Elmer Luminescence Spectrometer LS50B exciting at 350 nm (10 nm slit) and emitting at 500 nm (10 nm slit). In a typical assay the protease (1-4 nM) was incubated with 10 μM NS4a peptide in 50 mM Tris pH 7.0, 5.0 mM DTT, 50% glycerol, and […] for 15 min. Catalysis was initiated by the addition of Substrate A (final concentration 5.0 μM). Assays were also run under conditions where 15% glycerol, 0.1% Maltoside were substituted for 50% glycerol and 5% CHAPS. Enzymatic activity was monitored by measuring the increase in fluorescence with time using excitation wavelength of 350 nm and an emission wavelength of 500 nm. Both slit widths were 10 nm. Inhibition constants were determined from a nonlinear least squares fit of the data to the equation Vi/Vo=1/(1+[I]/Kiapp). Where Vi is the velocity measured in the presence of inhibitor (inhibitors were introduced with the NS4a peptide) and Vo is the velocity of controls. The thermodynamic Ki was determined from Kiapparent via the relationship for competitive kinetics: Ki=Kiapp/(1+[S]/Km) where [S] is the substrate concentration.
Footnote a for Table 1 references the assay condiditions: 1) Substrate A=P6-P3′, HCV protease (4.0 nM) was incubated with various concentrations of truncated analogs of Q9692 in 50 mM Tris buffer, pH 7.0, 15% glycerol, 0.1% maltoside, 5 mM DTT and 10 μM NS4A peptide in a 96-well microtiter plate at room temperature. After 15 minutes catalysis was initiated by the addition of Ac-D-E-D(EDANS)-E-E-Abuψ[COO]-A-S-K(DABCYL)—NH2 (final concentration 5.0 μM in a total reaction volume of 200 μl). Enzymatic activity was monitored by measuring the increase in fluorescence with time on a Perkin Elmer LS50B luminescence spectrometer (excitation 350 nm, emission 500 nm, both slits 10 nm). […] Assays were 100 μl in volume, reactions were run at room temperature (˜22 C) for 80 minutes (<10% of the substrate was consumed). The addition of 4 μl of 10% TFA quenched the reactions. Quantitation of hydrolysis products was determined by measuring fluorescent peak areas following HPLC. Products were detected by excitation at 350 nm and measuring emission at 500 nm. Aliquots (50 μl) of quenched enzymatic reactions were injected on an Hewlett Packard 1090 HPLC equipped with a ¼ inch Dynamex 60A C18 column. A linear gradient from 10% acetonitrile:H2O to 45% acetonitrile:H2O was run over a period of 15 min at a flow rate of 1.0 ml/min. All solvents contained 0.1% TFA.

[2] = target: T1, HCV NS3 protease, genotype 1a; assay type: biochemical; details: P6-P3′ amide substrate
Method: as §1
Comparison of the effects of Q9692 on the hydrolysis of a P6-P3′ ester substrate (FIG. 2A) and a P6-P7′ substrate (FIG. 2B) and P6-P3′ amide substrate (FIG. 2C) were determined. […] Hydrolysis products were quantitated by measuring fluorescent peak areas following HPLC and detection by excitation at 350 nm and measuring emission at 500 nm. […]

HCV protease 2A = target: T2, HCV protease 2A (Hepatitis C virus genotype 2a, UniProt P26660); test: HCV protease type 2a, 9-mer substrate; assay type: biochemical
T2 construct: the catalytic domains of types 1b, 1J and 2a have also been examined
From the text: It is understood that other forms of HCV protease may be used in an assay for the determination of inhibitors. The present invention has disclosed the 1A form of HCV protease, however, the catalytic domains of types 1b, 1J and 2a have also been examined, as well as, the full-length version of form 1b. Evidence for the exosite exists in each case. Activation by Q9692 follows the trend of activation by NS4a. Forms of the enzyme that are more sensitive to NS4a display greater stimulation by Q9692 than forms that are less sensitive. In rank order sensitivity is 1J, 1B, 1A, and 2A. The catalytic activity of 2A toward the 9-mer substrate is enhanced by only 1.5-fold at 4 μM Q9692 and becomes inhibited by Q9692 at concentrations greater than 20 μM. […] Use of alternative forms of the HCV protease is relevent to development of an inexpensive and easy continous assay.

HCV protease = HCV protease (Hepatitis C virus genotype 1b, UniProt P26663); details: read-out: inhibitor of HCV protease (potency); 13 residue substrate spanning P6-P7′; cited from earlier work
[3] = P6-P3′ ester substrate, 2 μM Q9692

Structure (SMILES): CC(=O)N[C@@H](CC(=O)O)C(=O)N[C@@H](CCC(=O)O)C(=O)N[C@H](C(=O)N[C@@H](CCC(=O)O)C(=O)N[C@@H](CC1CCCCC1)C(=O)N[C@@H](CS)C(=O)O)C(c1ccccc1)c1ccccc1 [Q9692, Ac-Asp-Glu-Dpa-Glu-Cha-Cys—OH] (Ac-DE[Dip]E[Cha]C-OH)
- Dixon plots of 1/V versus Q9717 concentration ([1]; 5 μM substrate spanning P6-P3′): intersecting lines
- concentration of maximum stimulation ([1]; P6-P3′ ester substrate): 4 µM
- concentrations at which inhibition was observed ([1]; P6-P3′ ester substrate): greater than 10.0 μM
- kcat of substrate [1, 3]: relatively unchanged
- reduction in Km of substrate [1, 3]: 5 fold
- activation of the enzyme (maximum stimulation) ([1]; P6-P3′ ester substrate, maximum at 4 μM Q9692): approximately 5 fold
- (S = P6-P3′) Inhibition(+) / Activation (−) ([1]; substrate A): −
- inhibition pattern [2]: mixed inhibition
- concentrations at which enzyme becomes inhibited (HCV protease 2A): greater than 20 μM
- enhancement of catalytic activity (HCV protease 2A; 4 μM Q9692): 1.5 fold
- Ki (HCV protease): 50 nM
